Series [1] relates to MCF-7 human breast cancer cells. Put plainly: alamarBlue cell viability assay. The note with it: Homo sapiens, 72 h; for IC50: MCF7, 72 h, alamarBlue, read-out: Antiproliferative Activity MCF-7 Cells IC50. Type of series: cell-based. The procedure:
(§1) The human breast carcinoma cell line MCF-7 was purchased from the European Collection of Animal Cell Cultures (ECACC) and cultured in Eagles minimum essential medium with 10% foetal bovine serum, 2 mM L-glutamine, and 100 μg/mL penicillin/streptomycin. The medium was supplemented with 1% non-essential amino acids. The human breast carcinoma cell line MDA-MB-231 was purchased from the ECACC. MDA-MB-231 cells were maintained in Dulbecco’s modified Eagle’s medium (DMEM) supplemented with 10% (v/v) foetal bovine serum, 2 mM L-glutamine, and 100 μg/mL penicillin/streptomycin (complete medium). HL-60 cells were derived from a patient with acute myeloid leukaemia and were obtained from the ECACC (Salisbury, UK). Cells were cultured in RPMI-1640 Glutamax medium supplemented with 10% FCS media and 100 μg/mL penicillin/streptomycin. MCF-10A cells were obtained as a kind gift from Dr Susan McDonnell, School of Chemical and Bioprocess Engineering, University College Dublin and were cultured in Dulbecco’s Modified Eagle Medium: Nutrient Mixture F-12 (DMEM/F12; Gibco) supplemented with 5% horse serum (Invitrogen), 20 ng mL^−1 epidermal growth factor (Merck Millipore), 0.5 μg mL^−1 hydrocortisone (Sigma,-Aldrich, Arklow, Co. Wicklow, Ireland), 100 ng mL^−1 cholera toxin (Sigma, Aldrich, Arklow, Co. Wicklow, Ireland), 10 μg mL^−1 insulin (Sigma, Aldrich, Arklow, Co. Wicklow, Ireland), and penicillin/streptomycin 5000 U mL^−1 (1%)(Gibco, Biosciences, 3 Charlemont Terrace, Crofton Road, Dun Laoghaire, Co Dublin, A96 K7H7, Ireland). Cells were maintained at 37 °C in 5% CO2 in a humidified incubator. All cells were sub-cultured 3 times/week by trypsinisation using TrypLE Express (1×).
(§2) Cells were seeded at a density of 2.5 × 10^4 cells/well (MCF-7, MDA-MB-231, MCF-10A cells) and 1 × 10^4 cells/well (HL-60) in 96-well plates (200 μL per well). After 24 h, cells were then treated with either medium alone, vehicle control (1% ethanol (v/v)) or with serial dilutions of CA-4 (4a), phenstatin (7a) or selected compounds (0.001–100 μM) in triplicate. Cell proliferation for MCF-7, MDA-MB-231, and MCF-10A cells was analysed using the alamarBlue assay (Invitrogen Corp.) according to the manufacturer’s instructions. After 67–69 h, alamarBlue (10% (v/v)) was added to each well, and plates were incubated for 3–5 h at 37 °C in the dark. Fluorescence was read using a 96-well fluorimeter with excitation at 530 nm and emission at 590 nm. Results were expressed as percentage viability relative to vehicle control (100%).
On the technique in general: Alamar Blue is a resazurin reagent that responds to reducing activity.

In series [2] the test system is MDA-MB-231 human breast cancer cells. Put plainly: alamarBlue cell viability assay. Conditions: Homo sapiens, MDA-MB-231, 72 h, read-out: Antiproliferative Activity MDA-MB-231 Cells IC50. Type of series: cell-based. As to the method:
as §1, §2

The next series concerns HL-60 leukaemia cells. In words: cell viability assay. Conditions: Homo sapiens, read-out: Antiproliferative Activity HL-60 Cells IC50. In kind it is cell-based. As to the method:
as §1, with “Cells were maintained at 37 °C in 5% CO2 in a humidified incubator. All cells were sub-cultured 3 times/week by trypsinisation using TrypLE Express (1×).” left out
Cells were seeded at a density of 2.5 × 10^4 cells/well (MCF-7, MDA-MB-231, MCF-10A cells) and 1 × 10^4 cells/well (HL-60) in 96-well plates (200 μL per well). […] Cell proliferation for MCF-7, MDA-MB-231, and MCF-10A cells was analysed using the alamarBlue assay (Invitrogen Corp.) according to the manufacturer’s instructions. […] Fluorescence was read using a 96-well fluorimeter with excitation at 530 nm and emission at 590 nm. Results were expressed as percentage viability relative to vehicle control (100%).

Series [3] deals with tubulin (microtubule network) in MCF-7 cells. Put plainly: immunofluorescence confocal microscopy of microtubule network. In kind it is cell-based, human. Conditions: 1 μM, 16 h. As to the method: Confocal microscopy was used to study the effects of drug treatment on MCF-7 cytoskeleton. For immunofluorescence, MCF-7 cells were seeded at 1 × 10^5 cells/mL on eight chamber glass slides (BD Biosciences). […] Following treatment, cells were gently washed in PBS, fixed for 20 min with 4% paraformaldehyde in PBS, and permeabilised in 0.5% Triton X-100. Following washes in PBS containing 0.1% Tween (PBST), cells were blocked in 5% bovine serum albumin diluted in PBST. […] Following washes in PBST, the cells were mounted in Ultra Cruz Mounting Media (Santa Cruz Biotechnology, Santa Cruz, CA) containing 4,6-diamino-2-phenolindol dihydrochloride (DAPI). Images were captured by Leica SP8 confocal microscopy with Leica application suite X software. All images in each experiment were collected on the same day using identical parameters. Experiments were performed on three independent occasions.

The mark [4] stands for this setting: MCF7, read-out: cell viability (viable cells).

SMILES strings stand for the structures.

From article PMC7926793, “Synthesis and Biological Evaluation of 1-(Diarylmethyl)-1H-1,2,4-triazoles and 1-(Diarylmethyl)-1H-imidazoles as a Novel Class of Anti-Mitotic Agent for Activity in Breast Cancer” (Pharmaceuticals, 2021) come the findings set out here.

What is called viability is the share of living cells, or the viability signal relative to a control. One may read the melting point as the temperature, or range, at which the solid turns liquid. A word on the IC50: it is the concentration that inhibits the measured activity by half.

As to `O=[N+]([O-])c1ccc(C(c2ccccc2)n2ccnc2)cc1` (stereo not drawn) [20b], in series [1] (setting [4]), the viability at 1 µM stood at 73%.
The compound `c1ccc(COc2ccc(C(c3ccccc3)n3cncn3)cc2)cc1` (stereo not drawn) [13j, 1-((4-(Benzyloxy)Phenyl)(Phenyl)Methyl)-1H-1,2,4-Triazole] displayed a melting point of 132 to 134 °C.
With `COc1ccc(C(c2cc(OC)c(OC)c(OC)c2)N2CCN(c3ccccc3)CC2)cc1O` (stereo not drawn) [27i, 2-Methoxy-5-((4-Phenylpiperazin-1-yl)(3,4,5-Trimethoxyphenyl)Methyl)Phenol], the viability at 10 µM in series [1] (setting [4]) came out at 48%.
Turning to `COc1cc(C(c2ccc(F)cc2)n2cncn2)cc(OC)c1OC` (stereo not drawn) [16g], the viability at 1 µM in series [1] (setting [4]) came out at 77%.
As to `COc1ccc(C(c2ccc(C#N)cc2)n2cncn2)cc1OCc1ccccc1` (stereo not drawn) [19f, 4-((3-(Benzyloxy)-4-Methoxyphenyl)(1H-1,2,4-Triazol-1-yl)Methyl)Benzonitrile], the melting point was 91 to 93 °C.
Consider `Oc1ccc(C(c2ccc(O)cc2)n2cncn2)cc1` [13o], for which the viability at 1 µM in series [1] (setting [4]) is 68%.
For `Fc1ccc(C(c2ccccc2)n2cncn2)cc1` (stereo not drawn) [13c, 1-((4-Fluorophenyl)(Phenyl)Methyl)-1H-1,2,4-Triazole], the melting point was in the range of 96 to 99 °C.
Same read-out and setting: under `Brc1ccc(C(c2ccccc2)n2ccnc2)cc1` (stereo not drawn) [20c, 1-((4-Bromophenyl)(Phenyl)methyl)-1H-Imidazole] stands 126 to 128 °C.
Compound `Nc1ccc(C(c2ccccc2)n2cncn2)cc1` (stereo not drawn) [13m, 4-(Phenyl(1H-1,2,4-Triazol-1-yl)Methyl)Aniline] registered a melting point of 149 to 151 °C. Further, in series [1] (setting [4]), the viability at 1 µM was 72%.
Compound `COc1ccc(C(c2cc(OC)c(OC)c(OC)c2)N2CCN(c3ccccc3)CC2)cc1OCc1ccccc1` (stereo not drawn) [27g, 1-((3-(Benzyloxy)-4-Methoxyphenyl)(3,4,5-Trimethoxyphenyl)Methyl)-4-Phenylpiperazine] returned a melting point of 124 to 126 °C.
Take `COc1ccc(C(c2ccc(C#N)cc2)n2cncn2)cc1O` (stereo not drawn) [19h, 4-((3-Hydroxy-4-Methoxyphenyl)(1H-1,2,4-Triazol-1-yl)Methyl)Benzonitrile]: the melting point was in the range of 168 to 170 °C. Besides, the IC50 in series [1] is over 100000 nM.
For `COc1ccc(C(c2cc(OC)c(OC)c(OC)c2)n2cncn2)cc1OCc1ccccc1` (stereo not drawn) [19a, 1-((3-(Benzyloxy)-4-Methoxyphenyl)(3,4,5-Trimethoxyphenyl)Methyl)-1H-1,2,4-Triazole], the melting point was in the range of 98 to 100 °C.
The same measure, in the same setting: with `N#Cc1ccc(C(c2ccc(OCc3ccccc3)cc2)n2cncn2)cc1` (stereo not drawn) [19g, 4-((4-(Benzyloxy)Phenyl)(1H-1,2,4-Triazol-1-yl)Methyl)Benzonitrile] the figure was 79 to 81 °C.
As to `COc1ccc(C(c2cc(OC)c(OC)c(OC)c2)N2CCN(c3ccc(C)cc3)CC2)cc1` (stereo not drawn) [27f], the viability at 0.1 µM in series [1] (MCF7, 0.1 μM, read-out: cell viability (viable cells)) was 84%. In addition, in series [1] (setting [4]), the viability at 1 µM came out at 76% and the viability at 10 µM turned out to be 42%.
With `COc1ccc(/C=C\c2cc(OC)c(OC)c(OC)c2)cc1O` [CA-4, reference compound], the values for the IC50 (in series [1]; in series [2]; in the series on HL-60 leukaemia cells) were 3.9 ± 0.32 nM, 43 nM and 1.9 ± 0.5 nM, respectively. For the same compound, the viability at 1 µM in series [1] (setting [4]) came to 24%.
`COc1cc(C(c2cc(OC)c(OC)c(OC)c2)n2ccnc2)cc(OC)c1OC` [21i, 1-(Bis(3,4,5-Trimethoxyphenyl)Methyl)-1H-Imidazole] had a melting point of 154 to 156 °C.
Same read-out and setting: with `COc1cc(C(c2ccccc2)n2cncn2)cc(OC)c1OC` (stereo not drawn) [16e, 1-(Phenyl(3,4,5-Trimethoxyphenyl)Methyl)-1H-1,2,4-Triazole] the figure was 139 to 140 °C.
For `COc1ccc(C(c2ccccc2)N2CCCC2)cc1` (stereo not drawn) [25d], the viability at 1 µM in series [1] (setting [4]) is 80%.
Turning to `N#Cc1ccc(C(c2ccc(O)cc2)n2cncn2)cc1` (stereo not drawn) [19i, 4-((4-Hydroxyphenyl)(1H-1,2,4-Triazol-1-yl)Methyl)Benzonitrile], the half-inhibitory concentration (IC50) in series [1] is over 100000 nM.
For the compound `Oc1ccc(C(c2ccccc2)n2cncn2)cc1` (stereo not drawn) [13n, 4-(Phenyl(1H-1,2,4-Triazol-1-yl)Methyl)Phenol], the melting point was 189 to 191 °C.
Turning to `COc1ccc(C(c2cc(OC)c(OC)c(OC)c2)n2cncn2)cc1` (stereo not drawn) [16c], the viability at 1 µM in series [1] (setting [4]) turned out to be 75%.
With `CC(=O)O[C@H]1C(=O)[C@@]2(C)[C@H]([C@H](OC(=O)c3ccccc3)[C@]3(O)C[C@H](OC(=O)[C@H](O)[C@@H](NC(=O)c4ccccc4)c4ccccc4)C(C)=C1C3(C)C)[C@]1(OC(C)=O)CO[C@@H]1C[C@@H]2O` [paclitaxel, reference compound], in series [3], the “effect on microtubule network of MCF-7 cells” value was “Hyperpolymerisation of tubulin”.
`CCOc1ccc(C(c2ccccc2)n2cncn2)cc1` (stereo not drawn) [13l, 1-((4-Ethoxyphenyl)(Phenyl)Methyl)-1H-1,2,4-Triazole] came in with a melting point of 98 to 100 °C.
For the compound `Fc1ccc(C(c2ccccc2)n2ccnc2)cc1` (stereo not drawn) [20d], the viability at 1 µM in series [1] (setting [4]) worked out at 67%.
The compound `O=C(Nc1ccc(C(c2ccccc2)n2cncn2)cc1)C(F)(F)F` (stereo not drawn) [13i, 2,2,2-Trifluoro-N-(4-(Phenyl(1H-1,2,4-Triazol-1-yl)Methyl)Phenyl)Acetamide] yielded a melting point of 143 to 145 °C.
On the same count and under the same terms, with `Brc1ccc(C(c2ccccc2)N2CCCC2)cc1` (stereo not drawn) [25b, 1-((4-Bromophenyl)(Phenyl)methyl)Pyrrolidine] the figure was 70 to 72 °C.
